The numbers were not newly measured in patent US4599352A, “Antineoplastic platinum (IV) complexes and compositions” (priority 1984, dated 1986), which cites them from elsewhere.

Series [1] relates to sarcoma-180, ascites form. The note with it: cited from earlier work.
In series [2] the test system is leukemia L1210. The note with it: cited from earlier work.

For the molecule `NC1CCCCC1N.[Cl-].[Cl-].[Pt+2]` (stereo not drawn) [Cis-dichloro-cis-1,2-cyclohexanediamine platinum (II)], the “Antitumor efficacy ranking” value in series [1] is reported as “more efficacious than the corresponding trans isomers”. Moreover, in series [2], the “Antitumor activity ranking” value is “least active”.
Regarding `[Cl][Pt]1([Cl])[NH]C2CCCCC2[NH]1` (single isomer, unassigned) [dichloro (1,2-diaminocyclohexane) platinum (II) complex trans (d) isomer], the “Antitumor activity ranking” value in series [2] is given as “intermediate activity”.
Turning to `[Cl][Pt]1([Cl])[NH]C2CCCCC2[NH]1` (single isomer, unassigned) [dichloro (1,2-diaminocyclohexane) platinum (II) complex trans (1) isomer], the “Antitumor activity ranking” value in series [2] is given as “highest activity”.
